Legend:
[1] = molecular target: T1, DOR (Homo sapiens, UniProt P41143); assay: Radioligand binding at DOR
[2] = molecular target: T2, KOR (Homo sapiens, UniProt P41145); assay: biochemical; format: binding; conditions: for Ki: KOR, [3H]U69593, mean ± SEM, N = 2–4
[3] = molecular target: T3, MOR (Homo sapiens, UniProt P35372); assay: biochemical; format: binding; conditions: for MOR, inhibition of radioligand binding at 10 μM (class): Table 2
[4] = molecular target: rat kidney TSPO (Rattus norvegicus, UniProt P16257); assay: Radioligand binding at TSPO; conditions: for Ki: TSPO, rat TSPO, [3H]PK11195; for TSPO, inhibition of radioligand binding at 10 μM (class): Table 2
rat kidney TSPO, sequence (P16257 whole entry): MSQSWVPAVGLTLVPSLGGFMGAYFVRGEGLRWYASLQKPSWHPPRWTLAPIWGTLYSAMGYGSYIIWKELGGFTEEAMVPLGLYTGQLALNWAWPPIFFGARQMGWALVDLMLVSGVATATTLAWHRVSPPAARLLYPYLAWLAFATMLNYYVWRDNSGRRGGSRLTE

[5] = molecular target: T4, mA1AR (Mus musculus, UniProt Q60612); assay: mA1AR binding; conditions: read-out: mA1AR binding, % inhibition at 10 μM
T4 sequence (Q60612 1-326): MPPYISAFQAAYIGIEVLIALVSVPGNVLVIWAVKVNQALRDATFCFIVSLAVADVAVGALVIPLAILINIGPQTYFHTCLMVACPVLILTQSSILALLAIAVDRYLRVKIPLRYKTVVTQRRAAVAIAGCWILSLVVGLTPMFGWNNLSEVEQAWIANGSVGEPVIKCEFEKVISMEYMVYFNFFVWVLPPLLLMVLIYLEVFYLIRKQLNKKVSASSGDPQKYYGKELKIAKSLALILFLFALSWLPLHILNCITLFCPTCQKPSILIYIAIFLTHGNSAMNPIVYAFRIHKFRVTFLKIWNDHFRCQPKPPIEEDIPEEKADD

[6] = molecular target: mA2AAR (Mus musculus, UniProt Q60613); assay: mA2AAR binding; conditions: read-out: mA2AAR binding, % inhibition at 10 μM
[7] = molecular target: T1, DOR; assay: β-arrestin-recruitment TANGO assay at DOR; format: cell-based; conditions: 10 μM
[8] = molecular target: T2, KOR; assay: β-arrestin-recruitment TANGO assay at KOR; format: cell-based; conditions: 10 μM; vs naloxone 121 = 100% inhibition; agonist 109 (3 nM)
[9] = molecular target: T3, MOR; assay: β-arrestin-recruitment TANGO assay at MOR; format: cell-based; conditions: 10 μM
[10] = molecular target: T5, mA3AR (Mus musculus, UniProt Q61618); conditions: ref Tosh et al. 2,3,6,34,35,37; cited from earlier work
T5 sequence (Q61618 1-319): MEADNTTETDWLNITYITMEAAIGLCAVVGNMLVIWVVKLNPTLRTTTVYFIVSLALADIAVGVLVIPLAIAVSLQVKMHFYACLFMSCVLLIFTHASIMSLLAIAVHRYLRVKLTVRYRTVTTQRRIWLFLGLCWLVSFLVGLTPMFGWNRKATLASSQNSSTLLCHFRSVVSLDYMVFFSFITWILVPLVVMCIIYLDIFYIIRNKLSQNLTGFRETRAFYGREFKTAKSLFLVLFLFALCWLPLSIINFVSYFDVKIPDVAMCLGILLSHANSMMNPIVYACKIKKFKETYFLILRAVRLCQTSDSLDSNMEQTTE

[11] = molecular target: hDAT (Homo sapiens, UniProt Q01959); assay: Radioligand binding at DAT; conditions: 10 μM; [3H]WIN35428; negative = enhanced radioligand binding
hDAT, sequence (Q01959 whole entry): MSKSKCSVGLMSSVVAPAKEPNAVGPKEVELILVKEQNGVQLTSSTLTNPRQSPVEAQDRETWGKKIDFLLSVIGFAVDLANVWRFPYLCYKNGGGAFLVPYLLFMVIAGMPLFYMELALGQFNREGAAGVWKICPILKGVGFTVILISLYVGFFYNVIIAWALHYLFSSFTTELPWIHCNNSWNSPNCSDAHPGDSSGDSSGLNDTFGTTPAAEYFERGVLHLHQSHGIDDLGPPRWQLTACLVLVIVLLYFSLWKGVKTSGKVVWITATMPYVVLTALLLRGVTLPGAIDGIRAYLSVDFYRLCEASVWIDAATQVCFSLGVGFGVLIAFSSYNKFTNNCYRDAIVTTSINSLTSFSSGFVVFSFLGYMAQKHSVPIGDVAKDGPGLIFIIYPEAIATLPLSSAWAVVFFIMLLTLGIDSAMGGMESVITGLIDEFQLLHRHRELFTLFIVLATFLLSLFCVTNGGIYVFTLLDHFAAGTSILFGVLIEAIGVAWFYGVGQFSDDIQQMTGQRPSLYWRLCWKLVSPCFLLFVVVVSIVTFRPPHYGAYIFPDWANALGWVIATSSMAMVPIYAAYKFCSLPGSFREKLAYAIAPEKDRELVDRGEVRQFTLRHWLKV

[12] = molecular target: 5HT2B serotonin receptor (Homo sapiens, UniProt P41595); assay: PDSP off-target binding, 5HT2B
5HT2B serotonin receptor, sequence (P41595 whole entry): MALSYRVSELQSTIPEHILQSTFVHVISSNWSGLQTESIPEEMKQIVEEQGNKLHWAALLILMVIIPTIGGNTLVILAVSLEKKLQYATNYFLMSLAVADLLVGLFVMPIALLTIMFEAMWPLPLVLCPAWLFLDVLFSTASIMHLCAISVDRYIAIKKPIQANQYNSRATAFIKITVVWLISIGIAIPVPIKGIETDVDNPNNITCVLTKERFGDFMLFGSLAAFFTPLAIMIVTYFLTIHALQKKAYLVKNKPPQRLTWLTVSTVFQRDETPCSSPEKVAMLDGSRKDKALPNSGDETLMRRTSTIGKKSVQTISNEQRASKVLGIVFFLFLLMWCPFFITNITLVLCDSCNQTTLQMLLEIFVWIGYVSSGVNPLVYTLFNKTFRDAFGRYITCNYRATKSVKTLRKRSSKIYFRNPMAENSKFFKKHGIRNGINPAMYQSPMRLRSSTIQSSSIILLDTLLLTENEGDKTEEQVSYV

[13] = molecular target: human α2C adrenergic receptor (Homo sapiens, UniProt P18825); assay: PDSP off-target binding, α2C adrenergic
human α2C adrenergic receptor, sequence (P18825 whole entry): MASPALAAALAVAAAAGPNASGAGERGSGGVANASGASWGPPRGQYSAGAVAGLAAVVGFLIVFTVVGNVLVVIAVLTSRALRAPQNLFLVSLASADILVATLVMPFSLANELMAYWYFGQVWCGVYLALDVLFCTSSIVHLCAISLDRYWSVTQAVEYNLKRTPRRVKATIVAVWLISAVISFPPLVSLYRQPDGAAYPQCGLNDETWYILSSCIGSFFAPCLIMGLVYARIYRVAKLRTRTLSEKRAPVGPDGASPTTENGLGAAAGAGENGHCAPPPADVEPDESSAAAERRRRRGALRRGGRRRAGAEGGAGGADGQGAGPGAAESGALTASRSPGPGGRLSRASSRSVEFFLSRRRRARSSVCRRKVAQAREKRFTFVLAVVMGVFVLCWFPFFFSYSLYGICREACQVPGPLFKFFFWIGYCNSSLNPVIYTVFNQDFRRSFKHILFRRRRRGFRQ

[14] = molecular target: β3 adrenergic receptor (Homo sapiens, UniProt P13945); assay: PDSP off-target binding, β3 adrenergic
β3 adrenergic receptor, sequence (P13945 whole entry): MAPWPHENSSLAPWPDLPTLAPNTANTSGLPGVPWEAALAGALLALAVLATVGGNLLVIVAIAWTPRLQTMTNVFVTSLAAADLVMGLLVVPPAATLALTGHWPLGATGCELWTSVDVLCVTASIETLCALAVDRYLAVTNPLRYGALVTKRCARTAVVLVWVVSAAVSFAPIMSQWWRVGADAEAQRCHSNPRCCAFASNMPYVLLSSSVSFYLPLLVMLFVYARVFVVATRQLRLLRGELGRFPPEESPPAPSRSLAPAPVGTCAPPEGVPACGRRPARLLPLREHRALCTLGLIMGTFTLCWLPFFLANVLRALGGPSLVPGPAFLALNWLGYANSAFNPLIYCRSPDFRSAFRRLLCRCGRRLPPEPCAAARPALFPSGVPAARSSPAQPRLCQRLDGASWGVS

[15] = molecular target: T6, rat σ2 receptor (Rattus norvegicus, UniProt Q5U3Y7); assay: PDSP binding, σ2 receptor
T6 sequence (Q5U3Y7 1-176): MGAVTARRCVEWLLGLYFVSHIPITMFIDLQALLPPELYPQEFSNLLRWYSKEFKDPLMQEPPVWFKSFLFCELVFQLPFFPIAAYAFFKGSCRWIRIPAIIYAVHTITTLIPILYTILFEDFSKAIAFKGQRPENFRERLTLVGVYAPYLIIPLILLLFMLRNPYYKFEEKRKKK

[16] = molecular target: T7, 5HT2C serotonin receptor (Homo sapiens, UniProt P28335); assay: PDSP off-target binding, 5HT2C
T7 sequence (P28335 33-458): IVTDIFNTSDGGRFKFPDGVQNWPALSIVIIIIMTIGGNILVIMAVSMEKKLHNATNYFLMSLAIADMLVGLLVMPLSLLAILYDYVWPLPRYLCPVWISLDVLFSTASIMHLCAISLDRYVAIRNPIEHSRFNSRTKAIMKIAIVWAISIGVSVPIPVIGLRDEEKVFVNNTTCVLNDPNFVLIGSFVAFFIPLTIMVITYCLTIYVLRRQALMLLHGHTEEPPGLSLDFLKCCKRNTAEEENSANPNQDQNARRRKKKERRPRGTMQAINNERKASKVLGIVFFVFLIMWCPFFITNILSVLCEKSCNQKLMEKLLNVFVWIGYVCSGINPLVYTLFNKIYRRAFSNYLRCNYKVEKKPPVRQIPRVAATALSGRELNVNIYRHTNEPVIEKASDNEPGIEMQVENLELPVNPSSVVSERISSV

[17] = molecular target: T8, hA3AR (Homo sapiens, UniProt P0DMS8); assay: A3AR binding
T8 sequence (P0DMS8 1-318): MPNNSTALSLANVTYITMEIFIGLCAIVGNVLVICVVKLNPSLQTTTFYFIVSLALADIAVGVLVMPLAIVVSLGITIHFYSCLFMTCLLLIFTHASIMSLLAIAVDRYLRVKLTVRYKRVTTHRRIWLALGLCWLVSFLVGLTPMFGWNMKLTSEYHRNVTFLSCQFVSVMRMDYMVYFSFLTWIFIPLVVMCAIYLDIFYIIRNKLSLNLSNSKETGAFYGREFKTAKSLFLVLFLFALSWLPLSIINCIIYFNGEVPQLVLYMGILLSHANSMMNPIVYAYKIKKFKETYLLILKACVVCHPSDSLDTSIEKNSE

[18] = molecular target: T9, hA1AR (Homo sapiens, UniProt P30542); assay: hA1AR binding
T9 sequence (P30542 1-326): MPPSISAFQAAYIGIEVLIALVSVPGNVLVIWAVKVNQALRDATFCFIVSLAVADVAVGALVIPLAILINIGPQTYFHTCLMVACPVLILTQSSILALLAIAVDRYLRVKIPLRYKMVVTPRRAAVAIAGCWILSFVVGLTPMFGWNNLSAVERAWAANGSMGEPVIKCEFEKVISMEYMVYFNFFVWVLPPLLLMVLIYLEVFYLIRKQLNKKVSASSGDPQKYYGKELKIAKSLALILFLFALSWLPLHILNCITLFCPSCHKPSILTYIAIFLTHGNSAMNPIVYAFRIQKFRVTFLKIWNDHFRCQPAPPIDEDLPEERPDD

[19] = molecular target: hA2AAR (Homo sapiens, UniProt P29274); assay: hA2AAR binding; conditions: read-out: binding inhibition at hA2AAR (% at 10 μM)
hA2AAR, sequence (P29274 whole entry): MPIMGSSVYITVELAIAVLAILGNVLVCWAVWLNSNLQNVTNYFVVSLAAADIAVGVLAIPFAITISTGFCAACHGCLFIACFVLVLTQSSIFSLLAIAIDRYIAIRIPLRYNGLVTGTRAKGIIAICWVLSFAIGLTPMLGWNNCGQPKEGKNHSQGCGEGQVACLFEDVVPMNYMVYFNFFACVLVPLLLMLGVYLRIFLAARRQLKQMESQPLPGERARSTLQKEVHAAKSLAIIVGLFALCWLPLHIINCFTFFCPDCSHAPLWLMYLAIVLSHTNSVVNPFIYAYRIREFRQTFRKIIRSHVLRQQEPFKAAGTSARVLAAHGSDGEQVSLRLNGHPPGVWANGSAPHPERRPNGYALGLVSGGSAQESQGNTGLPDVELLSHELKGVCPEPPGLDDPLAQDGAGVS

[20] = molecular target: T2, KOR; format: cell-based
[21] = molecular target: T2, KOR; assay: cell-based; format: cell-based
[22] = molecular target: hSERT (Homo sapiens, UniProt P31645); assay: biochemical; format: binding
[23] = molecular target: 5HT2A serotonin receptor (Homo sapiens, UniProt P28223); assay: PDSP off-target binding, 5HT2A
5HT2A serotonin receptor, sequence (P28223 whole entry): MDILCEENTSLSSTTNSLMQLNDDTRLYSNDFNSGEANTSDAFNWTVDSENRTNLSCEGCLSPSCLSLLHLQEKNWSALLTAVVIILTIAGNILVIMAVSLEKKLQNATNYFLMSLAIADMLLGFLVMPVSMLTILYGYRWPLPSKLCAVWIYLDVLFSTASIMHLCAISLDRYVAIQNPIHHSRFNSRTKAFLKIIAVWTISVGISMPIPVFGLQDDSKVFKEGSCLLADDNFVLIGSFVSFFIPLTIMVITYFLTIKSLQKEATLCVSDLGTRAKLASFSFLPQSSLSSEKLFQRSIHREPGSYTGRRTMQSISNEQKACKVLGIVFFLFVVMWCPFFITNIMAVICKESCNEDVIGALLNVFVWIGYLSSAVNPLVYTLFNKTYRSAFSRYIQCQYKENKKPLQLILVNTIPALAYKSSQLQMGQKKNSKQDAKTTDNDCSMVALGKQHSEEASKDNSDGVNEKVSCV

[24] = molecular target: muscarinic M5 receptor (Homo sapiens, UniProt P08912); assay: PDSP off-target binding, muscarinic M5
muscarinic M5 receptor, sequence (P08912 whole entry): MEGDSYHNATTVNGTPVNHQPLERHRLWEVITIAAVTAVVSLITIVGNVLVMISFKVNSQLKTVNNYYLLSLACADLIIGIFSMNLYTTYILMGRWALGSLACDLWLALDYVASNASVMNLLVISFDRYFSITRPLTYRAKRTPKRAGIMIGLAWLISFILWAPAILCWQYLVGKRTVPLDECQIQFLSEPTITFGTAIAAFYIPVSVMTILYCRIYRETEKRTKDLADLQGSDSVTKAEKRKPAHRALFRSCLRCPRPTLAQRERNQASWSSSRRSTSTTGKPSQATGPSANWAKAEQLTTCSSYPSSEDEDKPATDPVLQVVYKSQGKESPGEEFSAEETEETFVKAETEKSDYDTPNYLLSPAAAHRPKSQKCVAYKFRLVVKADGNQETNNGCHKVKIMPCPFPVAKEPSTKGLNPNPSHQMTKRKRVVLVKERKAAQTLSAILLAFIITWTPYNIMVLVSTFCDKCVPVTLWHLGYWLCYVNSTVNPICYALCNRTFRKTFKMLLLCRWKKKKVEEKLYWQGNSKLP

T2 sequence (P41145 whole entry): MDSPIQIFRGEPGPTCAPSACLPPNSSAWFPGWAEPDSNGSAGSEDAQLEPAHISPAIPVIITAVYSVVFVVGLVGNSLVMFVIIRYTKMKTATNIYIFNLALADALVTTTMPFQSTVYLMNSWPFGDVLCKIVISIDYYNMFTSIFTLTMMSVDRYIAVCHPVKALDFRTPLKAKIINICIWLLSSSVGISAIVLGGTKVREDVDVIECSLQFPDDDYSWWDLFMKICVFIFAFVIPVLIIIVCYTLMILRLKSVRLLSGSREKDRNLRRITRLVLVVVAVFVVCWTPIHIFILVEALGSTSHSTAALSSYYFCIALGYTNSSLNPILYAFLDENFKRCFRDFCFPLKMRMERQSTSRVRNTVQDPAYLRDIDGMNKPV
T1 sequence (P41143 whole entry): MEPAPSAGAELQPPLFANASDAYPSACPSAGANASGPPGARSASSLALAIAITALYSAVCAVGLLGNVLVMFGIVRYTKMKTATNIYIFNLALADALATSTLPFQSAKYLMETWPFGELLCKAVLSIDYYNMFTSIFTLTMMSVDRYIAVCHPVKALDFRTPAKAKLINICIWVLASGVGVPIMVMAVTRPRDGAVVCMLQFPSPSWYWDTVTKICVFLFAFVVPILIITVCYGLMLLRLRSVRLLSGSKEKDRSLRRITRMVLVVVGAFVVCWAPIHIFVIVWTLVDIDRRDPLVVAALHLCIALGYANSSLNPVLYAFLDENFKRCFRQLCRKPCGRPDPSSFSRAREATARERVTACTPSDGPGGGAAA
T3 sequence (P35372 whole entry): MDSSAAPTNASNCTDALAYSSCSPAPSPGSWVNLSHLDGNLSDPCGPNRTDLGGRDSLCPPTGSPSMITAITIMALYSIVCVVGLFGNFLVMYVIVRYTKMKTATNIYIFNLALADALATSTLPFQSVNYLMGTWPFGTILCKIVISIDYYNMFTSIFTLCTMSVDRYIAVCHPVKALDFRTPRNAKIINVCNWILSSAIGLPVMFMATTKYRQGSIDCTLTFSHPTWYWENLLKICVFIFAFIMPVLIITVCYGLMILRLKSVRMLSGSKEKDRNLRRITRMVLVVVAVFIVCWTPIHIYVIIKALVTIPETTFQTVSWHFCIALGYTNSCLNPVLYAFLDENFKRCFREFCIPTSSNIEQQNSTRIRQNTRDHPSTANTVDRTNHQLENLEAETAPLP

Row | Ki [2] [µM] | Ki [4] [µM] | DAT, inhibition, % of control at 10 μM [11] | Ki [12] [µM] | Ki [16] [µM] | Ki [1] [µM] | Ki [3] [µM] | Ki [17] [µM] | SMILES | DOR, inhibition of radioligand binding at 10 μM (class) ([1]; Table 2) | MOR, inhibition of radioligand binding at 10 μM (class) [3] | A3AR binding, % at 10 μM (m) [10] [%] | further results
1 | 0.396 ± 0.029 | 1.29 ± 0.07 | – | – | – | – | – | – | CCOC(=O)[C@@]12C[C@@H]1[C@@H](n1cnc3c(NC)nc(C#Cc4ccc(Cl)s4)nc31)[C@H](O)[C@@H]2O [compound 24] | ^c (30–50% inhibition of radioligand binding at 10 μM) | ^d (<30% inhibition of radioligand binding at 10 μM) | 45 ± 5 | inhibition at 10 µM [5]: 43%; inhibition at 10 µM [6]: 10%; DOR Antag (%) ([7]; vs naloxone 121 = 100% inhibition): 35.3%; DOR Ag (%) ([7]; vs standard agonist = 100%): 0.7%; KOR Antag (%) [8]: 58.2%; MOR Antag (%) ([9]; vs naloxone 121 = 100% inhibition, agonist 99 (300 nM)): –13.4%; MOR Ag (%) ([9]; vs standard agonist = 100%): 0.3%
2 | 2.09 ± 0.33 | 8.12 ± 0.67 | –370% | – | 2.33 | – | – | – | CNc1nc(C#Cc2ccc(Br)s2)nc2c1ncn2[C@H]1[C@H](O)[C@H](O)[C@]2(C(=O)OC)C[C@H]12 [compound 23] | ^d (<30% inhibition of radioligand binding at 10 μM) | ^c (30–50% inhibition of radioligand binding at 10 μM) | 57 ± 1 | –
3 | 3.13 ± 0.3 | – | –352% | – | – | – | – | – | CNc1nc(C#Cc2ccc(Cl)s2)nc2c1ncn2[C@H]1[C@H](O)[C@H](O)[C@]2(C(=O)OC)C[C@H]12 [compound 22] | ^d (<30% inhibition of radioligand binding at 10 μM) | ^c (30–50% inhibition of radioligand binding at 10 μM) | 36 ± 1 | TSPO, inhibition of radioligand binding at 10 μM (class) [4]: ^c (30–50% inhibition of radioligand binding at 10 μM)
4 | – | 3.39 ± 0.64 | –354% | 1.78 ± 0.28 | 0.4 | – | – | 0.0473 ± 0.0189 | CCOC(=O)[C@@]12C[C@@H]1[C@@H](n1cnc3c(NC)nc(C#Cc4ccc(Cl)s4)cc31)[C@H](O)[C@@H]2O [compound 27] | ^d (<30% inhibition of radioligand binding at 10 μM) | ^d (<30% inhibition of radioligand binding at 10 μM) | – | KOR binding inhibition at 10 μM ([2]; 10 μM): < 10%; KOR, inhibition of radioligand binding at 10 μM (class) ([2]; Table 2, 10 μM): ^d (<30% inhibition of radioligand binding at 10 μM); Ki [23]: 1.3 ± 0.29 µM; Ki [24]: 3.85 µM

More lines, now with the values behind:

Row | SMILES | Ki [2] [µM] | Ki [4] [µM] | DAT, inhibition, % of control at 10 μM [11] | Ki [12] [µM] | Ki [16] [µM] | Ki [1] [µM] | Ki [3] [µM] | Ki [17] [µM] | DOR, inhibition of radioligand binding at 10 μM (class) ([1]; Table 2) | MOR, inhibition of radioligand binding at 10 μM (class) [3] | A3AR binding, % at 10 μM (m) [10] [%] | further results
5 | CNC(=O)[C@@]12C[C@@H]1[C@@H](n1cnc3c(NCc4cccc(Cl)c4)nc(C#Cc4ccccc4)nc31)[C@H](O)[C@@H]2O [compound 6] | – | 2.65 ± 0.29 | 7% | 2.96 ± 0.6 | – | – | – | – | – | – | – | DOR, inhibition of radioligand binding at 10 μM (class) ([1]; Table 1): ^e (30–50% inhibition of radioligand binding at 10 μM); Ki [13]: 6.3 µM; Ki [14]: 2.6 µM; Ki [15]: 1.54 µM
6 | CCOC(=O)[C@@]12C[C@@H]1[C@@H](n1ccc3c(NC)nc(C#Cc4ccc(Cl)s4)nc31)[C@@H]1OC(C)(C)O[C@@H]12 [compound 77, Ethyl(3aR,3bS,4aS,5R,5aS)-5-(2-((5-chlorothiophen-2-yl)ethynyl)-4-(methylamino)-7H-pyrrolo[2,3-d]pyrimidin-7-yl)-2,2-dimethyltetrahydrocyclopropa[3,4]cyclopenta[1,2-d][1,3]dioxole-3b(3aH)-carboxylate] | 0.052 ± 0.023 | – | –20% | 4.18 | 0.016 | 1.99 ± 1.02 | 1.53 ± 0.56 | 1.65 ± 0.33 | – | – | – | TSPO, inhibition of radioligand binding at 10 μM (class) [4]: ^d (<30% inhibition of radioligand binding at 10 μM); selectivity at 5HT2CR compared with 5HT2BR [16]: 260 fold
7 | CCOC(=O)[C@@]12C[C@@H]1[C@@H](n1ccc3c(NCCc4ccccc4)nc(C#Cc4ccccc4)nc31)[C@H](O)[C@@H]2O [compound 43, Ethyl(1S,2R,3S,4R,5S)-2,3-dihydroxy-4-(4-(phenethylamino)-2-(phenylethynyl)-7H-pyrrolo[2,3-d]pyrimidin-7-yl)bicyclo[3.1.0]hexane-1-carboxylate] | 0.207 ± 0.021 | 0.48 ± 0.2 | 21% | – | – | 0.627 ± 0.178 | 1.77 ± 0.54 | 0.483 ± 0.062 | – | – | – | inhibition at 10 µM ([18]; read-out: binding inhibition at hA1AR (% at 10 μM)): 26%; inhibition at 10 µM [19]: < 10%; inhibition of agonist 98 in βarrestin2 assay ([20]; 1 μM 98): did not inhibit; βarrestin2 recruitment, agonist effect relative to full agonist 98 ([20]; agonist mode, highest concentrations): 30 ± 4.6%; inhibition of agonist 98 in cAMP assay ([21]; 100 nM 98): did not inhibit; inhibition at 30 µM ([21]; CHO, read-out: inhibition of cAMP accumulation, % inhibition at 30 μM): 23%; Ki [13]: 0.51 µM
8 | CCOC(=O)[C@@]12C[C@@H]1[C@@H](n1ccc3c(NC)nc(I)nc31)[C@@H]1OC(C)(C)O[C@@H]12 [compound 73, Ethyl(3aR,3bS,4aS,5R,5aS)-5-(2-iodo-4-(methylamino)-7H-pyrrolo[2,3-d]pyrimidin-7-yl)-2,2-dimethyltetrahydrocyclopropa[3,4]cyclopenta[1,2-d][1,3]dioxole-3b(3aH)-carboxylate] | 0.276 ± 0.065 | > 10 | –39% | – | – | > 10 | 7.6 | 4.05 ± 0.74 | – | – | – | Ki [18]: 1.11 µM; Ki [22]: 6.58 µM
